Assay results as given in patent US5618795A, “Dibekacin derivatives and arbekacin derivatives active against resistant bacteria, and the production thereof” (Zaidan Hojin Biseibutsu Kagaku Kenkyu Kai, priority 1992, dated 1997).
Converted amounts (≈) assume the structure as drawn. Where two headings read alike, the source gives them in different places.

Assays:
[1] = tested on: clinically isolated strains of MRSA; assay: Antibacterial MIC spectra against 50 clinically isolated strains of MRSA; assay type: cell-based, methicillin-resistant Staphylococcus aureus; settings: Staphylococcus aureus; for MIC50: 50% of the 50 MRSA strains inhibited, read-out: MIC50; for MIC90: 90% of the 50 MRSA strains inhibited, read-out: MIC90; for MIC: read-out: Antibacterial MIC spectra
Procedure: (§1) Minimum growth inhibitory concentrations (MIC) of each of 2"-amino-2"-deoxyarbekacin (Compound Ia), 2"-amino-5,2"-dideoxyarbekacin (Compound Ib), 2"-amino-2"-deoxydibekacin (Compound IIa) and 2"-amino-5,2"-dideoxydibekacin (Compound IIb) against various bacteria (20 strains) and against clinically isolated strains of MRSA (50 strains) were determined by standard serial dilution method on Muller-Hinton's agar medium (as estimated after cultivating at 27° C. for 18 hours), and the test results obtained are shown in TABLE 3 and TABLE 4, respectively.
Note:- MIC50 or MIC90 represents the concentration of tested
active compound at which 50% or 90% of the total numbers of the bacterial
strains tested were inhibited from their growth. DKB denotes dibekacin,
(§2) Minimum growth inhibitory concentrations (MIC) of each of 2"-amino-5,2"-dideoxy-5-epi-fluoroarbekacin (Compound XVIa) and 2"-amino-5,2"-dideoxy-5-epi-aminoarbekacin (Compound XVIb) against various bacteria (18 strains) and against clinically isolated strains of MRSA (50 strains) were determined by standard serial dilution method on Muller-Hinton's agar medium (as estimated after cultivation at 27° C. for 18 hours), and the test results obtained are shown in TABLE 5 and TABLE 6, respectively.

[2] = Acute toxicity, single intravenous administration to mice; assay type: in vivo; settings: mouse, in vivo; single intravenous administration; mice (ICR-strain, 4 weeks old, female); observations for two weeks; read-out: LD50
Source text: 50% Lethal dosages (LD50, observations for two weeks) of the new compounds of this invention as estimated upon single intravenous administration to mice (ICR-strain, 4 weeks old, female) are as follows:
50% Lethal dosages (LD50, observations for two weeks) of the new compounds of general formula (XVI) according to the seventh aspect of this invention as estimated upon single intravenous administration to mice (ICR-strain, 4 weeks old, female) are as follows: […]

[3] = tested on: Escherichia coli NIHJ; assay: MIC by standard serial dilution method on Muller-Hinton's agar; assay type: cell-based; settings: 18 hours
Procedure: as §1, §2

[4] = tested on: Pseudomonas aeruginosa A3; assay: as above; assay type: cell-based
Procedure: as §1, §2

[5] = tested on: Shigella dysenteriae JSI1910; assay: as above; assay type: cell-based; settings: JSI1910, 18 h
Procedure: as §1, §2

[6] = tested on: Providencia rettgeri GN311; assay: as above; assay type: cell-based
Procedure: as §1, §2

[7] = tested on: Salmonella typhi T-63; assay: as above; assay type: cell-based; settings: Salmonella enterica, 18 hours
Procedure: as §1, §2

[8] = tested on: Serratia marcescens; assay: as above; assay type: cell-based
Procedure: as §1, §2

[9] = tested on: P. aeruginosa H9; assay: as above; assay type: cell-based; settings: Pseudomonas aeruginosa
Procedure: as §1, §2

[10] = tested on: S. aureus Smith; assay: as above; assay type: cell-based; settings: Staphylococcus aureus, 27° C., 18 hours
Procedure: as §1, §2

[11] = tested on: Staphylococcus aureus FDA209P; assay: as above; assay type: cell-based; settings: 18 hours
Procedure: as §1, §2

[12] = tested on: E. coli K-12 LA290 R55; assay: as above; assay type: cell-based; settings: Escherichia coli, K12LA290R55, 18 h
Procedure: as §1, §2

[13] = tested on: E. coli JR66/W677; assay: as above; assay type: cell-based; settings: Escherichia coli, JR66/W677, 18 h
Procedure: as §1, §2

[14] = tested on: Klebsiella pneumoniae PCI602; assay: as above; assay type: cell-based
Procedure: as §1, §2

[15] = tested on: Proteus vulgaris OX19; assay: as above; assay type: cell-based
Procedure: as §1, §2

[16] = tested on: E. coli K-12 ML1629; assay: as above; assay type: cell-based; settings: Escherichia coli
Procedure: as §1, §2

[17] = tested on: P. aeruginosa PST1; assay: as above; assay type: cell-based; settings: Pseudomonas aeruginosa, 18 hours
Procedure: as §1, §2

[18] = tested on: Bacillus subtilis PCI219; assay: as above; assay type: cell-based; settings: 18 hours
Procedure: as §1, §2

[19] = tested on: P. aeruginosa TI-13; assay: as above; assay type: cell-based; settings: Pseudomonas aeruginosa
Procedure: as §1, §2

[20] = tested on: S. epidermidis 109; assay: as above; assay type: cell-based
Procedure: as §1, §2

[21] = Solubility in water; assay type: physicochemical
[22] = tested on: B. cereus ATCC10702; assay: MIC by standard serial dilution method on Muller-Hinton's agar; assay type: cell-based; settings: Bacillus cereus, ATCC10702, 18 h
Procedure: as §1

[23] = tested on: E. coli K-12 ML1410; assay: as above; assay type: cell-based; settings: Escherichia coli, K12ML1410; Table 3; 27° C., 18 hours
Procedure: as §1

[24] = range over 50 clinically isolated strains of MRSA, 27° C., 18 hours
[25] = A3, Table 5, 27° C., 18 hours, read-out: MIC
[26] = GN311, Table 5, 27° C., 18 hours, read-out: MIC
[27] = PCI602, Table 5, 27° C., 18 hours, read-out: MIC
[28] = OX19, Table 5, 27° C., 18 hours, read-out: MIC
[29] = TI13, Table 5, 27° C., 18 hours, read-out: MIC
[30] = Staphylococcus epidermidis, 109, Table 5, 27° C., 18 hours, read-out: MIC
[31] = H9, Table 3, 27° C., 18 hours, read-out: MIC
[32] = K12ML1629, Table 3, 27° C., 18 hours, read-out: MIC

Structure (SMILES)	MIC50 ([1]; 27° C., 18 hours) [µg/mL]	MIC90 ([1]; 27° C., 18 hours) [µg/mL]	MIC [1, 24] [µg/mL]	LD50 at 336 h [2] [mg/kg]	MIC ([3]; Table 5, 27° C.) [µg/mL]	MIC [4, 25] [µg/mL]	MIC [5] [µg/mL]	MIC [6, 26] [µg/mL]	MIC ([7]; Table 5, 27° C.) [µg/mL]	MIC ([8]; 18 h) [µg/mL]	MIC ([9]; H9, 18 h) [µg/mL]	MIC ([10]; Table 5) [µg/mL]	MIC ([11]; Table 5, 27° C.) [µg/mL]	MIC [12] [µg/mL]	MIC [13] [µg/mL]	MIC [14, 27] [µg/mL]	MIC [15, 28] [µg/mL]	MIC ([16]; K12ML1629, 18 h) [µg/mL]	MIC ([17]; Table 5, 27° C.) [µg/mL]	Solubility [21]	also measured
NCC[C@H](O)C(=O)N[C@@H]1C[C@H](N)[C@@H](O[C@H]2O[C@H](CN)CC[C@H]2N)[C@@H](N)[C@H]1O[C@H]1O[C@H](CO)[C@@H](O)[C@H](N)[C@H]1N [Compound XVIb, 2"-amino-5,2"-dideoxy-5-epi-aminoarbekacin]	0.78 (≈ 1.42 µM)	1.56 (≈ 2.83 µM)	0.39 to 1.56 (≈ 0.708 to 2.83 µM)	> 100	0.78 (≈ 1.42 µM)	0.39 (≈ 0.708 µM)	3.13 (≈ 5.68 µM)	1.56 (≈ 2.83 µM)	0.78 (≈ 1.42 µM)	3.13 (≈ 5.68 µM)	3.13 (≈ 5.68 µM)	≤ 0.2	≤ 0.2	1.56 (≈ 2.83 µM)	3.13 (≈ 5.68 µM)	1.56 (≈ 2.83 µM)	1.56 (≈ 2.83 µM)	1.56 (≈ 2.83 µM)	6.25 (≈ 11.4 µM)	easily soluble in water	MIC ([18]; Table 5, 27° C.): ≤ 0.2 µg/mL; MIC [19, 29]: 1.56 µg/mL (≈ 2.83 µM); MIC [20, 30]: 0.39 µg/mL (≈ 0.708 µM)
NCC[C@H](O)C(=O)N[C@@H]1C[C@H](N)[C@@H](O[C@H]2O[C@H](CN)CC[C@H]2N)[C@@H](F)[C@H]1O[C@H]1O[C@H](CO)[C@@H](O)[C@H](N)[C@H]1N [Compound XVIa, 2"-Amino-5,2"-dideoxy-5-epi-fluoroarbekacin]	0.78 (≈ 1.41 µM)	1.56 (≈ 2.82 µM)		> 100	0.78 (≈ 1.41 µM)	0.78 (≈ 1.41 µM)	3.13 (≈ 5.65 µM)	1.56 (≈ 2.82 µM)	0.78 (≈ 1.41 µM)		3.13 (≈ 5.65 µM)	≤ 0.2	0.78 (≈ 1.41 µM)	1.56 (≈ 2.82 µM)	3.13 (≈ 5.65 µM)	1.56 (≈ 2.82 µM)	1.56 (≈ 2.82 µM)	3.13 (≈ 5.65 µM)	12.5 (≈ 22.6 µM)	easily soluble in water	MIC ([1]; MRSA, 18 h): 0.39 to 3.13 µg/mL (≈ 0.704 to 5.65 µM); MIC ([8]; Table 5, 27° C., 18 hours, read-out: MIC): 1.56 µg/mL (≈ 2.82 µM); MIC ([18]; Table 5, 27° C.): 0.39 µg/mL (≈ 0.704 µM); MIC [19, 29]: 1.56 µg/mL (≈ 2.82 µM); MIC [20, 30]: 0.78 µg/mL (≈ 1.41 µM)
NCC[C@H](O)C(=O)N[C@@H]1C[C@H](N)[C@@H](O[C@H]2O[C@H](CN)CC[C@H]2N)[C@H](O)[C@H]1O[C@H]1O[C@H](CO)[C@@H](O)[C@H](N)[C@H]1N [Compound Ia, 2"-Amino-2"-deoxyarbekacin]	0.78 (≈ 1.41 µM)	1.56 (≈ 2.83 µM)		> 100			3.13 (≈ 5.67 µM)			3.13 (≈ 5.67 µM)				0.78 (≈ 1.41 µM)	3.13 (≈ 5.67 µM)					easily soluble in water	MIC ([1]; MRSA, 18 h): 0.2 to 3.13 µg/mL (≈ 0.363 to 5.67 µM); MIC ([3]; Table 3, 27° C.): 0.78 µg/mL (≈ 1.41 µM); MIC ([4]; A3, Table 3, 27° C., 18 hours, read-out: MIC): 1.56 µg/mL (≈ 2.83 µM); MIC ([6]; GN311, Table 3, 27° C., 18 hours, read-out: MIC): 1.56 µg/mL (≈ 2.83 µM); MIC ([7]; Table 3, 27° C.): 0.78 µg/mL (≈ 1.41 µM); MIC [9, 31]: 6.25 µg/mL (≈ 11.3 µM); MIC ([10]; Table 3): ≤ 0.2 µg/mL; MIC ([11]; Table 3, 27° C.): 0.39 µg/mL (≈ 0.707 µM); MIC ([14]; PCI602, Table 3, 27° C., 18 hours, read-out: MIC): 1.56 µg/mL (≈ 2.83 µM); MIC ([15]; OX19, Table 3, 27° C., 18 hours, read-out: MIC): 1.56 µg/mL (≈ 2.83 µM); MIC [16, 32]: 3.13 µg/mL (≈ 5.67 µM); MIC ([17]; Table 3, 27° C.): 12.5 µg/mL (≈ 22.7 µM); MIC ([18]; Table 3, 27° C.): 0.2 µg/mL (≈ 0.363 µM); MIC ([19]; TI13, 18 h): 3.13 µg/mL (≈ 5.67 µM); MIC ([20]; Staphylococcus epidermidis, 109, Table 3, 27° C., 18 hours, read-out: MIC): 0.78 µg/mL (≈ 1.41 µM); MIC [22]: 3.13 µg/mL (≈ 5.67 µM); MIC [23]: 1.56 µg/mL (≈ 2.83 µM)
NC[C@@H]1CC[C@@H](N)[C@@H](O[C@H]2[C@H](O)[C@@H](O[C@H]3O[C@H](CO)[C@@H](O)[C@H](N)[C@H]3O)[C@H](N)C[C@@H]2N)O1 [DKB, 3',4'-dideoxykanamycin B, reference compound]	50 (≈ 111 µM)	> 100																			
NC[C@@H]1CC[C@@H](N)[C@@H](O[C@H]2[C@H](O)[C@@H](O[C@H]3O[C@H](CO)[C@@H](O)[C@H](N)[C@H]3N)[C@H](N)C[C@@H]2N)O1 [Compound IIa, 2"-Amino-2"-deoxydibekacin]	6.25 (≈ 13.9 µM)	25 (≈ 55.5 µM)	0.2 to 50 (≈ 0.444 to 111 µM)	> 100			3.13 (≈ 6.95 µM)							1.56 (≈ 3.46 µM)	3.13 (≈ 6.95 µM)					easily soluble in water	MIC ([3]; Table 3, 27° C.): 0.78 µg/mL (≈ 1.73 µM); MIC ([4]; A3, 18 h): 1.56 µg/mL (≈ 3.46 µM); MIC ([6]; GN311, 18 h): 1.56 µg/mL (≈ 3.46 µM); MIC ([7]; Table 3, 27° C.): 1.56 µg/mL (≈ 3.46 µM); MIC ([8]; Table 3, 27° C., 18 hours, read-out: MIC): 12.5 µg/mL (≈ 27.7 µM); MIC [9, 31]: 6.25 µg/mL (≈ 13.9 µM); MIC ([10]; Table 3): 0.39 µg/mL (≈ 0.866 µM); MIC ([11]; Table 3, 27° C.): 0.78 µg/mL (≈ 1.73 µM); MIC ([14]; PCI602, 18 h): 3.13 µg/mL (≈ 6.95 µM); MIC ([15]; OX19, 18 h): 1.56 µg/mL (≈ 3.46 µM); MIC [16, 32]: 3.13 µg/mL (≈ 6.95 µM); MIC ([17]; Table 3, 27° C.): 50 µg/mL (≈ 111 µM); MIC ([18]; Table 3, 27° C.): ≤ 0.2 µg/mL; MIC ([19]; TI13, 18 h): 3.13 µg/mL (≈ 6.95 µM); MIC ([20]; Staphylococcus epidermidis, 109, 18 h): 1.56 µg/mL (≈ 3.46 µM); MIC [22]: 3.13 µg/mL (≈ 6.95 µM); MIC [23]: 1.56 µg/mL (≈ 3.46 µM)
